This note sets out measurements from patent US5322944A, “Process for the synthesis of enantiomers of 3-aminochroman compounds” (Adir et Compagnie, priority 1991, dated 1994).

The target in assay [1] is T1, 5HT1 A receptors (Homo sapiens, UniProt P08908).
T1 sequence (P08908 1-422): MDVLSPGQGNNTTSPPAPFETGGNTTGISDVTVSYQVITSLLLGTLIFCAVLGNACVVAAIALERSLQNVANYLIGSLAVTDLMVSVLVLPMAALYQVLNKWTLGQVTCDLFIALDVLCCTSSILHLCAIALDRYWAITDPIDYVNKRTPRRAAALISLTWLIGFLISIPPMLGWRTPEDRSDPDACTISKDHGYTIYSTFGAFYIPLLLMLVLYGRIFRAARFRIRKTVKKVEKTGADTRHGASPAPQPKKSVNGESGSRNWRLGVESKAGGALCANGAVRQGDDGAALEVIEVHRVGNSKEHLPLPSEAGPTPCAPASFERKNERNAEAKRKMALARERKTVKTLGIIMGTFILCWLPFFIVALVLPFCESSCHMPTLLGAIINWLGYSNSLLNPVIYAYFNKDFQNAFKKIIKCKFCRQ
In words: conventional binding techniques, 5HT1 A receptors. The conditions noted are these: for Ki: affinity expressed as K 0.5 (Ki) for the 5HT1 A receptors, conventional binding techniques, called K 0.5 for the (+) isomer, Ki for the (-) isomer; for selectivity (5HT1 A versus D2 receptors): ratio of D2 to 5HT1 A affinity constants. The source says: (§1) If conventional binding techniques are used, the affinity of the (+) isomer of the compound of formula (II), expressed as K 0.5, is 2×10^-10for the 5HT1 A receptors and 2×10^-8 for the D2 receptors, which is equivalent to a selectivity of the order of 100.

The target in assay [2] is D2 receptors (Homo sapiens, UniProt P14416). In words: conventional binding techniques, D2 receptors. The note with it: called K 0.5 for the (+) isomer, read-out: affinity expressed as K 0.5 (Ki) for the D2 receptors.
Excerpt: as §1

Sequence of D2 receptors (P14416 whole entry): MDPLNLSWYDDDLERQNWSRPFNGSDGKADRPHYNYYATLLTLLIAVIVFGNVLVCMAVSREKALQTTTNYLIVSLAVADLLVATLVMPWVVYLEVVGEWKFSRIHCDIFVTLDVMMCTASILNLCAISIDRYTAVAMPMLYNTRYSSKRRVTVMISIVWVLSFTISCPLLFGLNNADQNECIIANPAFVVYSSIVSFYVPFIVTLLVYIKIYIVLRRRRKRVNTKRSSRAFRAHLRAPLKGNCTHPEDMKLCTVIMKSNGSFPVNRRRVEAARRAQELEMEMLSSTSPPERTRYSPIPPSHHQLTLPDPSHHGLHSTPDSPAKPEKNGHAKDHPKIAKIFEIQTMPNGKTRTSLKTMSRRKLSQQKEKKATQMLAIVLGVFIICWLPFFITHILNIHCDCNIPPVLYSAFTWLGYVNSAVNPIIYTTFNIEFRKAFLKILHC

The term Ki denotes the dissociation constant of the complex between target and ligand, obtained from inhibition or displacement. For `CCCN(CCCCN1C(=O)CC2(CCCC2)CC1=O)C1COc2cccc(OC)c2C1` (single isomer, unassigned; (+)) [(+) isomer of the compound of formula (II)], the “affinity for the 5HT1 A receptors relative to that of the (-) isomer” value in assay [1] ((+) isomer compared with (-) isomer) is on record as “about 10 times”. In addition, the “specificity relative to the (-) isomer” value in assay [1] ((+) isomer compared with (-) isomer, 5HT1 A versus D2) stood at 20 times. In addition, in assay [1], affinity was put at a Ki of 0.2 nM and the “selectivity (5HT1 A versus D2 receptors)” value is reported as around 100. The inhibition constant (Ki) in assay [2] is 20 nM.

Consider `CCCN(CCCCN1C(=O)CC2(CCCC2)CC1=O)C1COc2cccc(OC)c2C1` (single isomer, unassigned; (-)) [(-) isomer], for which, in assay [1], the Ki came out at 2 nM and the “selectivity (5HT1 A versus D2 receptors)” value was around 5. Also, the inhibition constant (Ki) in assay [2] came out at 10 nM.
